Assay results: patent US20110046224A1, “METHODS TO ACCELERATE MUSCLE DEVELOPMENT, DECREASE FAT DEPOSITS, AND ENHANCE FEEDING EFFICIENCY IN PIGS” (BIOKAB, S.A. de C.V., priority 2009, published 2011)

Legend:
[1] = tested on: pigs for meat supply; assay: Carcass quality of pigs fed supplemented food (body fat and lean efficiency estimated in vivo with Piglot 105); parameters: species or system York-Landrace (YL) x Duroc (DC); conditions: for Average fat / LEAN EFFICIENCY: at approx. 100 kg, mean and standard deviation
Description: (§1) 30 pigs were used, 15 castrated males and 15 females obtained from a terminal breeding York-Landrace (YL)×Duroc (DC); at the beginning of the study, said pigs weighted 77.83±1.20 Kg and were approximately 18 weeks old. Pigs were kept in individual pens, and were randomly distributed to 3 treatments, with ten repetitions per treatment. Treatments were: a positive control, including 5 ppm of commercial ractopamine; a second treatment including 12 ppm of pure ferulic acid and a third treatment containing 15 ppm of substantially pure ferulic acid per ton of food. Pigs were weighted every seven days, studying the following variables: initial weight, weekly weight, and final weight of the pigs; daily food intake. This was used to estimate the daily, weekly and term weight gain, as well as food efficiency. When reaching the approximate weight of 100 kg, animals were evaluated in vivo (using Piglot 105, SFK-Technology, Netherlands) in order to estimate the amount of body fat and lean efficiency. Results were evaluated randomly, using SAS general linear models procedures.

[2] = tested on: pigs for meat supply; assay: Production characteristics of finishing pigs fed supplemented food (weight, weight gain, food intake, food conversion); format: in vivo, York-Landrace (YL) x Duroc (DC); conditions: for FINAL WEIGHT / DAILY GAIN / WEIGHT GAIN / AVERAGE INTAKE / TOTAL INTAKE: mean and standard deviation; for AVERAGE INTAKE: daily average food intake; for CONVERSION: food conversion; for TOTAL INTAKE: food intake
Description: as §1

[3] = tested on: pigs for meat supply; assay: as above; format: in vivo, York-Landrace (YL) x Duroc (DC); conditions: supplemented pigs vs untreated control group

CC(CCc1ccc(O)cc1)NCC(O)c1ccc(O)cc1 (stereo not shown) [Ractopamine, ractopamine, reference compound]
CARCASS EFFICIENCY ([1]; 5 ppm in food): 87.08% | EFFICIENCY IN CUTS ([1]; 5 ppm in food): 51.69% | Average fat ([1]; 5 ppm in food): 9.67 ± 1.11 mm | LEAN EFFICIENCY ([1]; 5 ppm in food): 58.98 ± 2.20% | FINAL WEIGHT ([2]; 5 ppm commercial ractopamine in food, start 77.33 Kg): 105.28 ± 4.98 kg | DAILY GAIN ([2]; 5 ppm in food): 1.00 ± .08 kg | WEIGHT GAIN ([2]; 5 ppm in food): 27.94 ± 3.20 kg | AVERAGE INTAKE ([2]; 5 ppm in food): 2.35 ± .33 kg | CONVERSION ([2]; 5 ppm in food): 2.32 | TOTAL INTAKE ([2]; 5 ppm in food): 82.33 ± 11.31 kg | intake of total food and daily average compared to the control group (untreated) [3]: lower intake

COc1cc(/C=C/C(=O)O)ccc1O [Pure ferulic acid, trans-4-hydroxy-3-methoxy cinnamic acid]
CARCASS EFFICIENCY ([1]; 12 ppm in food): 88.01% | EFFICIENCY IN CUTS ([1]; 12 ppm in food): 49.66% | Average fat ([1]; 12 ppm in food): 13.5 ± 3.58 mm | LEAN EFFICIENCY ([1]; 12 ppm in food): 56.24 ± 3.58% | DAILY GAIN ([2]; 12 ppm in food): 0.873 ± .20 kg | WEIGHT GAIN ([2]; 12 ppm in food): 24.45 ± 5.64 kg | FINAL WEIGHT ([2]; 12 ppm pure ferulic acid in food, start 79.4 Kg): 103.85 ± 7.63 kg | AVERAGE INTAKE ([2]; 12 ppm in food): 2.34 ± .40 kg | CONVERSION ([2]; 12 ppm in food): 2.68 | TOTAL INTAKE ([2]; 12 ppm in food): 81.75 ± 14.00 kg

COc1cc(/C=C/C(=O)O)ccc1O [ferulic acid]
amount of dorsal fat (in words) ([1]; pigs fed with 15 ppm): lower amount of dorsal fat | lean efficiency (in words) ([1]; pigs fed with 15 ppm): better lean efficiency | intake of total food and daily average compared to the control group (untreated) [3]: lower intake

COc1cc(/C=C/C(=O)O)ccc1O [Substantially pure ferulic acid, trans-ferulic acid]
CARCASS EFFICIENCY ([1]; 15 ppm in food): 89.26% | EFFICIENCY IN CUTS ([1]; 15 ppm in food): 50.88% | Average fat ([1]; 15 ppm in food): 9.60 ± .34 mm | LEAN EFFICIENCY ([1]; 15 ppm in food): 59.66 ± 3.14% | DAILY GAIN ([2]; 15 ppm in food): 1.04 ± .20 kg | WEIGHT GAIN ([2]; 15 ppm in food): 29.25 ± 5.70 kg | FINAL WEIGHT ([2]; 15 ppm substantially pure ferulic acid in food, start 78.2 Kg): 107.47 ± 6.84 kg | AVERAGE INTAKE ([2]; 15 ppm in food): 2.30 ± .26 kg | CONVERSION ([2]; 15 ppm in food): 2.21 | TOTAL INTAKE ([2]; 15 ppm in food): 80.57 ± 8.13 kg
